Measured values taken from patent US11744799B2, “Topical composition” (MC2 Therapeutics Limited, priority 2017, dated 2023).
Values joined by “and” are separate entries in the source; they are usually repeats but may differ in a detail not shown here. Equal entries are not always repeated.

Assay: Stability of 1% crisaborole solution in 50% ethanol/citrate buffer at various pH
Format: physicochemical
Conditions: for % peak purity: 1% solution, 50% ethanol, 40° C. for one month
Procedure: The sample was stored in a closed, airtight glass container with headspace comprising no more than 5% by volume of the total usable volume of the container. Each container containing a sample was stored at a constant temperature of 40° C. in a standard laboratory incubator (for example, Memmert IF260PLUS Incubator). The storage period for each sample was […]. The chemical stability of the crisaborole in each sample after the storage period was measured by a HPLC method. The HPLC method was as follows: A 1% solution of crisaborole was prepared with 50% ethanol and a citrate buffer to pH 5.5. The system was then stored at 40° C. for one month under the conditions of Example 3 and gave an 84% peak purity. Equivalent solutions were prepared and tested at pH 4.5, 6.5, 7.5 and 8.5.

## N#Cc1ccc(Oc2ccc3c(c2)COB3O)cc1 [crisaborole]
Aqueous medium, pH 4.5 to 8.5 tested
  pH at which chemical stability is highest: 5.5
pH 4.5
  % peak purity: 79.5%
pH 5.5, citrate buffer
  % peak purity: 84% and 84.1%
pH 6.5
  % peak purity: 79.8%
pH 7.5
  % peak purity: 72.1%
pH 8.5
  % peak purity: 51.3%
